Starred links: 1 amine or outer side, 2 acyl side, 3 side chain; linkers in the order of their positions; H or OH if unused. Non-standard residues stand in square brackets, D forms with d. Residues, ends and D or L forms follow the SMILES beside them. Ahppa(3S,4S) = O=C(C[C@H](O)[C@H](Cc1ccccc1)N[*:1])[*:2]; dNMeF = CN[C@H](Cc1ccccc1)C(=O)O; NMeQ = CN[C@@H](CCC(N)=O)C(=O)O; Lac = C[C@H](O)C(=O)O
Columns and labels:
Cathepsin D = Cathepsin D (Homo sapiens, UniProt P07339); assay: Inhibition of human liver cathepsin D using Mca-Gly-Lys-Pro-Ile-Leu-Phe-Phe-Arg-Leu-Lys-(Dnp)-D-Arg-NH2 as substrate preincubated for 15 mins followed by substrate addition measured every 5 mins for 120 mins by fluorescence analysis
Chain of Cathepsin D (P07339 65-162 limits assumed): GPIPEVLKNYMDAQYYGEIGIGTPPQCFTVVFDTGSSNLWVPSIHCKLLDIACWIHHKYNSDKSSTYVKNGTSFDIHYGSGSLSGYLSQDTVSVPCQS
Chain of Cathepsin D (P07339 169-412 limits assumed): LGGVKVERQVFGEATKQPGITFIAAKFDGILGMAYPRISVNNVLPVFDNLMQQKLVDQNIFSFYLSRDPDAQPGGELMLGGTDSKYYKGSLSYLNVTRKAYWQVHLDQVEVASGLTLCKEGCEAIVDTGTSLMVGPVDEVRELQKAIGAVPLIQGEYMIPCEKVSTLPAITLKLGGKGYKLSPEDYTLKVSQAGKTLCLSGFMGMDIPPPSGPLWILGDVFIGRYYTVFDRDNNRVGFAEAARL

Cathepsin E = target: T1, Cathepsin E (Homo sapiens, UniProt P14091); assay: Inhibition of human recombinant cathepsin E using Mca-Gly-Lys-Pro-Ile-Leu-Phe-Phe-Arg-Leu-Lys-(Dnp)-D-Arg-NH2 as substrate preincubated for 15 mins followed by substrate addition measured every 5 mins for 120 mins by fluorescence analysis
T1 sequence (P14091 whole entry): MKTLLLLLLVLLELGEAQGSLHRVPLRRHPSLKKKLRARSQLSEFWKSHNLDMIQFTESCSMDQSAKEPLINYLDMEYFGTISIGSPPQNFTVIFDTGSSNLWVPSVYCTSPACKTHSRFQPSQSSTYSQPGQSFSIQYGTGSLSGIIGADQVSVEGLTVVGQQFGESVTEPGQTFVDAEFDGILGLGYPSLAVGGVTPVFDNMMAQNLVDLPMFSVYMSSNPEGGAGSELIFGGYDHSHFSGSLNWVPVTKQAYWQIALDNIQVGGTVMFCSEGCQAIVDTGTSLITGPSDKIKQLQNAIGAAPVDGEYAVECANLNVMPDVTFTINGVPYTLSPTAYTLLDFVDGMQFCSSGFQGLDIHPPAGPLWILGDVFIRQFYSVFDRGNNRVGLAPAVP

Homo sapiens [1] = species: Homo sapiens; assay: Selectivity ratio of IC50 for human liver cathepsin D to IC50 for human recombinant cathepsin E
Beta-secretase 1 = Beta-secretase 1 (Homo sapiens, UniProt P56817); assay: Inhibition of BACE1 (unknown origin) using peptide substrate by time-course measurement-based fluorescence analysis
Chain of Beta-secretase 1 (P56817 whole entry): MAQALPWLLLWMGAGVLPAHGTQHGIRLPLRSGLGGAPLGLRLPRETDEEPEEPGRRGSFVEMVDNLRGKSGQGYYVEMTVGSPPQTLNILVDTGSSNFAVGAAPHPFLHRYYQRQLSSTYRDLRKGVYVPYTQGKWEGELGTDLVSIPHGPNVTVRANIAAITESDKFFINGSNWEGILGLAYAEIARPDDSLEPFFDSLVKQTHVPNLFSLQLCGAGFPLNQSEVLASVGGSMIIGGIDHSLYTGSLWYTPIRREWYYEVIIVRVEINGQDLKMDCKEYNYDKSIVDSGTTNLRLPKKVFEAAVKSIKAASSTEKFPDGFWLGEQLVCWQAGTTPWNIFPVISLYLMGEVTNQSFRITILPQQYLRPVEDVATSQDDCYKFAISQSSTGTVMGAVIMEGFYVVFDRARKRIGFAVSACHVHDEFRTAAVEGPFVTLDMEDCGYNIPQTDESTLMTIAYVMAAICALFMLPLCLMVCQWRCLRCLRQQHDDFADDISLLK

Homo sapiens [2] = species: Homo sapiens; assay: Selectivity ratio of IC50 for BACE1 (unknown origin) to IC50 for human liver cathepsin D
Homo sapiens [3] = species: Homo sapiens; assay: Selectivity ratio of IC50 for BACE1 (unknown origin) to IC50 for human recombinant cathepsin E

IC50 (Cathepsin D): 57 nM | IC50 (Cathepsin E): 23 nM | Ratio IC50 (Homo sapiens [1]): 2.4 | IC50 (Beta-secretase 1): 690 nM | Ratio IC50 (Homo sapiens [2]): 12 | Ratio IC50 (Homo sapiens [3]): 30
Structure (SMILES): CC[C@H](C)[C@H](NC(=O)C[C@H](O)[C@H](Cc1ccccc1)NC(=O)[C@H](CCC(N)=O)N(C)C(=O)[C@@H](NC(=O)[C@H](C)O)[C@@H](C)CC)C(=O)NCC(=O)N(C)[C@H](Cc1ccccc1)C(=O)N1CCC[C@H]1C(=O)OC (H-[Lac]I[NMeQ][Ahppa(3S,4S)]IG[dNMeF]P-OMe)

Source: ChEMBL document CHEMBL3813591, “Tasiamide F, a potent inhibitor of cathepsins D and E from a marine cyanobacterium” (Bioorg Med Chem, 2016)
